Source: ChEMBL document CHEMBL4433199, “First-in-class allosteric inhibitors of bacterial IMPDHs” (Eur J Med Chem, 2019)
One block for each molecule: values may come before it. Activity calls are given as the source filed them. The rule behind the calls is not given here.

Key:
[1] = target: T1, Inosine-5'-monophosphate dehydrogenase (Pseudomonas aeruginosa (strain ATCC 15692 / DSM 22644 / CIP 104116 / JCM14847 / LMG 12228 / 1C / PRS 101 / PAO1)) (UniProt Q9HXM5); assay: Inhibition of Pseudomonas aeruginosa IMPDH at 49.8 uM using IMP as substrate in the presence of NAD+ incubated for 70 secs relative to control
T1 sequence (whole entry): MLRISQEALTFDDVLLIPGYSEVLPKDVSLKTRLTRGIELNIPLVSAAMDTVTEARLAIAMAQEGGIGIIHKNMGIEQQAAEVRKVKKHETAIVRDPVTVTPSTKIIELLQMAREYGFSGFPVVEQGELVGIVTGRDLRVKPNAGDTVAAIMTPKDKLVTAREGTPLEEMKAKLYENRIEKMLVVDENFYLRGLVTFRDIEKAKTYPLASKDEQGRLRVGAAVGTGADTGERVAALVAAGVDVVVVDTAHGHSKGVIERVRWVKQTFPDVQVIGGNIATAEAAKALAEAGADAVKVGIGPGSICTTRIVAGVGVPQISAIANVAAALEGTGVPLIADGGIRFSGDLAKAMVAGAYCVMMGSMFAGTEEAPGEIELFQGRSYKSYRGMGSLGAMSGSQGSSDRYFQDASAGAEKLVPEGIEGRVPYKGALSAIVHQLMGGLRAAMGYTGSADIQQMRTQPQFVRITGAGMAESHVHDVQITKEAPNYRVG

[2] = target: T2, Inosine-5'-monophosphate dehydrogenase (Pseudomonas aeruginosa (strain ATCC 15692 / DSM 22644 / CIP 104116 / JCM14847 / LMG 12228 / 1C / PRS 101 / PAO1), UniProt Q9HXM5); assay: Inhibition of Pseudomonas aeruginosa IMPDH using IMP as substrate in the presence of NAD+ incubated for 70 secs
T2 sequence (Q9HXM5 whole entry): T1 sequence (whole entry)

[3] = target: T1, Inosine-5'-monophosphate dehydrogenase (Pseudomonas aeruginosa (strain ATCC 15692 / DSM 22644 / CIP 104116 / JCM14847 / LMG 12228 / 1C / PRS 101 / PAO1)); assay: Inhibition of Pseudomonas aeruginosa IMPDH at 57.4 uM using IMP as substrate in the presence of NAD+ incubated for 70 secs relative to control
[4] = target: T1, Inosine-5'-monophosphate dehydrogenase (Pseudomonas aeruginosa (strain ATCC 15692 / DSM 22644 / CIP 104116 / JCM14847 / LMG 12228 / 1C / PRS 101 / PAO1)); assay: Competitive inhibition of Pseudomonas aeruginosa IMPDH using IMP as substrate and NAD+ in presence of varying ATP incubated for 70 secs
[5] = target: T1, Inosine-5'-monophosphate dehydrogenase (Pseudomonas aeruginosa (strain ATCC 15692 / DSM 22644 / CIP 104116 / JCM14847 / LMG 12228 / 1C / PRS 101 / PAO1)); assay: Inhibition of Pseudomonas aeruginosa IMPDH at 55.9 uM using IMP as substrate in the presence of NAD+ incubated for 70 secs relative to control
[6] = target: T1, Inosine-5'-monophosphate dehydrogenase (Pseudomonas aeruginosa (strain ATCC 15692 / DSM 22644 / CIP 104116 / JCM14847 / LMG 12228 / 1C / PRS 101 / PAO1)); assay: Inhibition of Pseudomonas aeruginosa IMPDH at 54.6 uM using IMP as substrate in the presence of NAD+ incubated for 70 secs relative to control
[7] = target: T1, Inosine-5'-monophosphate dehydrogenase (Pseudomonas aeruginosa (strain ATCC 15692 / DSM 22644 / CIP 104116 / JCM14847 / LMG 12228 / 1C / PRS 101 / PAO1)); assay: Inhibition of Pseudomonas aeruginosa IMPDH at 43.1 uM using IMP as substrate in the presence of NAD+ incubated for 70 secs relative to control
[8] = target: T1, Inosine-5'-monophosphate dehydrogenase (Pseudomonas aeruginosa (strain ATCC 15692 / DSM 22644 / CIP 104116 / JCM14847 / LMG 12228 / 1C / PRS 101 / PAO1)); assay: Inhibition of Pseudomonas aeruginosa IMPDH at 44.7 uM using IMP as substrate in the presence of NAD+ incubated for 70 secs relative to control
[9] = target: T1, Inosine-5'-monophosphate dehydrogenase (Pseudomonas aeruginosa (strain ATCC 15692 / DSM 22644 / CIP 104116 / JCM14847 / LMG 12228 / 1C / PRS 101 / PAO1)); assay: Inhibition of Pseudomonas aeruginosa IMPDH at 40.7 uM using IMP as substrate in the presence of NAD+ incubated for 70 secs relative to control
[10] = target: T1, Inosine-5'-monophosphate dehydrogenase (Pseudomonas aeruginosa (strain ATCC 15692 / DSM 22644 / CIP 104116 / JCM14847 / LMG 12228 / 1C / PRS 101 / PAO1)); assay: Inhibition of Pseudomonas aeruginosa IMPDH at 41.5 uM using IMP as substrate in the presence of NAD+ incubated for 70 secs relative to control
[11] = target: T1, Inosine-5'-monophosphate dehydrogenase (Pseudomonas aeruginosa (strain ATCC 15692 / DSM 22644 / CIP 104116 / JCM14847 / LMG 12228 / 1C / PRS 101 / PAO1)); assay: Inhibition of Pseudomonas aeruginosa IMPDH assessed as Km for IMP at 20 uM using IMP as substrate in presence of 2 mM NAD+ and 0.2 mM MgATP (reference value: 483 +/- 65 microM)
[12] = target: T1, Inosine-5'-monophosphate dehydrogenase (Pseudomonas aeruginosa (strain ATCC 15692 / DSM 22644 / CIP 104116 / JCM14847 / LMG 12228 / 1C / PRS 101 / PAO1)); assay: Inhibition of Pseudomonas aeruginosa IMPDH at 46.2 uM using IMP as substrate in the presence of NAD+ incubated for 70 secs relative to control
[13] = target: T1, Inosine-5'-monophosphate dehydrogenase (Pseudomonas aeruginosa (strain ATCC 15692 / DSM 22644 / CIP 104116 / JCM14847 / LMG 12228 / 1C / PRS 101 / PAO1)); assay: Inhibition of Pseudomonas aeruginosa IMPDH at 18.2 uM using IMP as substrate in the presence of NAD+ incubated for 70 secs relative to control
[14] = compound: N#CC1=C(N)Oc2[nH]c(=O)[nH]c(=O)c2C1c1ccc([N+](=O)[O-])cc1; assay: (§1) Inhibition of Pseudomonas aeruginosa IMPDH assessed as Vmax for IMP at 10 uM using IMP as substrate in presence of 2 mM NAD+ and 0.2 mM MgATP (reference value: 3.74 +/- 0.22 U/mg)
[15] = compound: CC(=O)Nc1ccc(C2C3=C(Nc4c2c(=O)[nH]c(=O)n4Cc2ccccc2)c2ccccc2C3=O)cc1; assay: as §1
[16] = compound: CC(=O)N1CCOc2cc(S(=O)(=O)Nc3ccc(F)c(Cl)c3)ccc21; assay: (§2) Inhibition of Pseudomonas aeruginosa IMPDH assessed as Vmax for IMP at 20 uM using IMP as substrate in presence of 2 mM NAD+ and 0.2 mM MgATP (reference value: 3.74 +/- 0.22 U/mg)
[17] = compound: CCOc1ccc(-c2cc(C(=O)O)nc3[nH]nc(-c4ccc(Cl)cc4)c23)cc1; assay: as §2

Molecule: N#CC1=C(N)Oc2[nH]c(=O)[nH]c(=O)c2C1c1ccc([N+](=O)[O-])s1 (configuration not stated)
inhibition [6]: 85.7% | IC50 ([2]; read-out: IC50): 4 µM | inhibition [4]: Active

Molecule: CN(Cc1ccccc1)Cc1nc2c(c(=O)n(C)c(=O)n2C)n1Cc1ccccc1F
inhibition [7]: 93.3% | IC50 [2]: Not Active

Molecule: O=C(O)c1cc(-c2cc(Br)ccc2F)c2c(-c3ccc(Cl)cc3)n[nH]c2n1
inhibition [9]: 71.6% | IC50 ([2]; read-out: IC50): 7.4 µM | inhibition [4]: Active

Molecule: COc1ccc(Br)cc1-c1cc(C(=O)O)nc2[nH]nc(-c3ccc(C)cc3)c12
inhibition [10]: 79.9% | IC50 ([2]; read-out: IC50): 11.7 µM | inhibition [4]: Active

Molecule: CCOc1ccc(-c2cc(C(=O)O)nc3[nH]nc(-c4ccc(Cl)cc4)c23)cc1
K0.5 [11]: 616 µM | IC50 ([2]; read-out: IC50): 18.3 µM | inhibition [4]: Active | inhibition [12]: 73%

Molecule: COc1cc(-c2ccc(/N=N/c3ccc4c(S(=O)(=O)O)cc(S(=O)(=O)O)c(N)c4c3O)c(OC)c2)ccc1/N=N/c1ccc2c(S(=O)(=O)O)cc(S(=O)(=O)O)c(N)c2c1O [CHICAGO SKY BLUE SODIUM]
inhibition [13]: 92.2% | IC50 ([2]; read-out: IC50): 1.6 µM | inhibition [4]: Active

B1: Inosine-5'-monophosphate dehydrogenase (Pseudomonas aeruginosa (strain ATCC 15692 / DSM 22644 / CIP 104116 / JCM14847 / LMG 12228 / 1C / PRS 101 / PAO1)), … (protein)
chain: T1 sequence (whole entry)
Vmax [14]: 3.64 U/mg | Vmax [15]: 3.34 U/mg | Vmax [16]: 2.81 U/mg | Vmax [17]: 3.14 U/mg

Further lines, results first:

inhibition [1]: 108% | IC50 [2]: Not Active
Molecule: COc1ccc(-n2c(=O)[nH]cc(C(=O)Nc3cc(C)ccc3C)c2=O)cc1

inhibition [3]: 89.3% | IC50 ([2]; read-out: IC50): 4 µM | inhibition [4]: Active
Molecule: N#CC1=C(N)Oc2[nH]c(=O)[nH]c(=O)c2C1c1ccc(Cl)cc1 (configuration not stated)

inhibition [5]: 95.2% | IC50 [2]: Not Active
Molecule: COc1cccc(CNC(=O)Cn2ncc3ccccc32)c1OC

inhibition [8]: 73.2% | IC50 ([2]; read-out: IC50): 19 µM | inhibition [4]: Active
Molecule: CC(=O)Nc1ccc(-c2cc(C(=O)O)nc3[nH]nc(-c4ccc(Cl)cc4)c23)cc1
